This is an account of results in patent publication US7713994B2 (Wyeth LLC, priority 2005, dated 2010).

The subject of series [1] is BT474. The series can be described thus: Cytotoxicity assay (SRB), BT474. The series is classed as cell-based. In outline: (§1)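 BT474 (12000 cells/well) was treated for 6 days, whereas HCT-116 (4000), LoVo (6000) and MCF-7 (6000) were treated for 3 days, all in RPMI 1640 containing 5% FBS. Surviving-cell percentage came from SRB dye binding measured at 540 nm.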
The test system of series [2] is HCT-116. The series can be described thus: Cytotoxicity assay (SRB), HCT-116. In kind it is cell-based. Conditions: Homo sapiens, HCT-116, 72 h, HCT116 cells, SRB, read-out: In Vitro Cellular Activity IC50 HCT116. The method, boiled down:
as §1

The test system of series [3] is MCF-7. The series can be described thus: Cytotoxicity assay (SRB), MCF-7. Conditions: Homo sapiens, MCF7, 72 h, MCF-7 cells, SRB, read-out: In Vitro Cellular Activity IC50 MCF-7. In kind it is cell-based. The method, boiled down: as §1
In series [4] the test system is LoVo. The series can be described thus: Cytotoxicity assay (SRB), LoVo. In kind it is cell-based. Particulars: Homo sapiens, LoVo, 72 h, LoVo cells, SRB, read-out: In Vitro Cellular Activity IC50 LOVO. In outline:
as §1

The mark [5] stands for this setting: Homo sapiens, BT-474, 144 h, BT474 cells, SRB, 6 days; read-out: In Vitro Cellular Activity IC50 BT474.
[6] abbreviates: Homo sapiens, BT-474, 144 h, BT474 cells, 6 days, SRB; read-out: In Vitro Cellular Activity IC50 BT474.

Read-outs that look alike come from different tables or passages of the source.

`CN1CCN(c2ccc(NC=C3C(=O)NC(=O)c4ccc(OCCN5CCOCC5)cc43)cc2)CC1` [Example 155, 4-{[4-(4-Methyl-piperazin-1-yl)-phenylamino]-methylene}-6-(2-morpholin-4-yl-ethoxy)-4H-isoquinoline-1,3-dione]: the melting point lay within 142 to 143 °C. Besides, in series [1] (setting [5]), the IC50 came out at 22 µM. Also, in series [2] (three days), the IC50 was found to be 17 µM. For the same compound, the IC50 in series [3] (three days) was 26 µM. Also, the 50% inhibitory concentration (IC50) in series [4] (three days) worked out at 19 µM.
Take `Cc1ccc(CN/C=C2\C(=O)NC(=O)c3ccc(I)cc32)cc1O` [Example 157, (4Z)-4-{[(4-Methyl-3-hydroxybenzyl)amino]methylene}-6-iodoisoquinoline-′1,3(2H,4H)-dione]: the melting point was in the range of 312 to 313 °C. Moreover, the IC50 in series [1] (setting [5]) was 19 µM. Moreover, the IC50 in series [2] (three days) came out at 6.7 µM. In series [3] (three days), the IC50 was 8.2 µM. Besides, the IC50 in series [4] (three days) is 22 µM.
For `CN1CCN(c2ccc(N/C=C3\C(=O)NC(=O)c4ccc(C#CCOC5CCCCO5)cc43)cc2)CC1` (centres unmarked) [Example 161, (4Z)-4-({[4-(4-Methylpiperazin-1-yl)phenyl]amino}methylene)-6-[3-(tetrahydro-2H-pyran-2-yloxy)prop-1-ynyl]isoquinoline-1,3(2H,4H)-dione], the melting point was 175 to 176 °C. Besides, in series [1] (setting [5]), the IC50 was found to be 3.4 µM. In addition, in series [2] (three days), the half-inhibitory concentration (IC50) stood at 2.2 µM. Further, in series [3] (three days), the IC50 was 4 µM. The IC50 in series [4] (three days) came to 6.4 µM.
Compound `CCOC(=O)C1(C(=O)OCC)Oc2ccc(CN/C=C3\C(=O)NC(=O)c4ccc(Br)cc43)cc2O1` [Example 179, (Z)-Diethyl 5-(((6-bromo-1,3-dioxo-2,3-dihydroisoquinolin-4(1H)-ylidene)methylamino)methyl)benzo[d][1,3]dioxole-2,2-dicarboxylate] returned a melting point of 222 to 223 °C. Also, in series [1] (setting [5]), the concentration for half-maximal inhibition (IC50) was 17 µM. Moreover, the IC50 in series [2] (three days) amounted to 34 µM. Also, the IC50 in series [3] (three days) amounted to 30 µM. The IC50 in series [4] (three days) was 20 µM.
In turn, `O=C1NC(=O)c2ccc(Br)cc2/C1=C/NCc1ccc(NC(=O)C2CC2)c(OC(=O)C2CC2)c1` [Example 185, 5-({[(Z)-(6-Bromo-1,3-dioxo-2,3-dihydroisoquinolin-4(1H)-′cyclopropanecarboxylate ′ylidene)methyl]amino}methyl)-2-[(cyclopropylcarbonyl)amino]phenyl] gave a melting point of 245 to 246 °C. In addition, the IC50 in series [1] (setting [5]) was 0.87 µM. For the same compound, the IC50 in series [2] (three days) is 2.8 µM. Besides, in series [3] (three days), the IC50 was over 50 µM. Further, in series [4] (three days), the IC50 stood at 2.7 µM.
As for `CCCOc1ccc(CN/C=C2\C(=O)NC(=O)c3ccc(Br)cc32)cc1OC(=O)CC` [Example 190, 5-({[(Z)-(6-Bromo-1,3-dioxo-2,3-dihydroisoquinolin-4(1H)-ylidene)methyl]amino}-methyl)-2-propoxyphenyl propionate], the melting point is 206 to 207 °C. Further, the IC50 in series [1] (setting [5]) was determined as 1.4 µM. The IC50 in series [2] (three days) was 9.4 µM. Besides, the IC50 in series [3] (three days) is over 50 µM. Besides, the half-inhibitory concentration (IC50) in series [4] (three days) is 13 µM.
In turn, `CCCOc1ccc(CN/C=C2\C(=O)NC(=O)c3ccc(Br)cc32)cc1OC(=O)OC` [Example 191, 5-({[(Z)-(6-Bromo-1,3-dioxo-2,3-dihydroisoquinolin-4(1H)-ylidene)methyl]amino}-methyl)-2-propoxyphenyl methyl carbonate] registered a melting point of 211 to 212 °C. In series [1] (setting [5]), the IC50 came to 5.7 µM. Moreover, the IC50 in series [2] (three days) was found to be 35 µM. The IC50 in series [3] (three days) was over 50 µM. The IC50 in series [4] (three days) was over 50 µM.
For `CN1CCN(C(=O)Nc2ccc(N/C=C3\C(=O)NC(=O)c4ccc(Br)cc43)cc2)CC1` [Example 215, N-(4-{[(Z)-(6-Bromo-1,3-dioxo-2,3-dihydroisoquinolin-4(1H)-′ylidene)methyl]amino}phenyl)-4-methylpiperazine-1-carboxamide], the melting point was over 300 °C. In addition, in series [1] (setting [5]), the half-inhibitory concentration (IC50) worked out at 7.4 µM. The IC50 in series [2] (three days) worked out at 4.5 µM. Also, the half-inhibitory concentration (IC50) in series [3] (three days) was determined as 7.1 µM. In addition, the IC50 in series [4] (three days) was 6.4 µM.
For `COc1cc2c(cc1Br)/C(=C/Nc1ccc(N3CCN(C)CC3)cc1)C(=O)NC2=O` [Example 242, 6-Bromo-7-methoxy-4-{[4-(4-methyl-piperazin-1-yl)-phenylamino]-methylene}-4H-isoquinoline-1,3-dione], in that order: 274 to 276 °C, 3.2 µM, 2.1 µM, 5.2 µM and 4.5 µM.
In the case of `O=C1NC(=O)c2ccc(I)cc2/C1=C/Nc1ccc(OCc2ccccn2)cc1` [Example 247], the melting point fell in the range of 265 to 266 °C. In addition, the IC50 in series [1] (setting [5]) is 35 µM. The half-maximal inhibitory concentration (IC50) in series [2] (three days) is 18 µM. In addition, in series [3] (three days), the 50% inhibitory concentration (IC50) was over 50 µM. Moreover, the IC50 in series [4] (three days) is over 50 µM.
For `COc1cc2c(cc1Br)/C(=C/Nc1ccc(CN3CCCCC3)cc1)C(=O)NC2=O` [Example 252, 6-Bromo-7-methoxy-4-[(4-piperidin-1-ylmethyl-phenylamino)-methylene]-4H-isoquinoline-1,3-dione], the melting point is 264 to 267 °C. Further, in series [1] (setting [5]), the IC50 stood at 15 µM. For the same compound, in series [2] (three days), the half-inhibitory concentration (IC50) is 14 µM. Further, the IC50 in series [3] (three days) amounted to 33 µM. Also, in series [4] (three days), the IC50 stood at 21 µM.
As for `O=C1NC(=O)c2ccc(Br)cc2/C1=C/Nc1ccc(CN2CCSC2)cc1` [Example 281, (4Z)-6-Bromo-4-({[4-(1,3-thiazolidin-3-ylmethyl)phenyl]amino}methylene)isoquinoline-1,3(2H,4H)-dione], the melting point was in the range of 224 to 225 °C. Also, the IC50 in series [1] (setting [5]) was 44.3 µM. In addition, the IC50 in series [2] (three days) worked out at 20 µM. Moreover, the IC50 in series [3] (three days) is 19 µM. In addition, the IC50 in series [4] (three days) was 12 µM.
Compound `COC[C@H]1CCCN1Cc1ccc(N/C=C2\C(=O)NC(=O)c3ccc(-c4ccc(OC(C)C)cc4)cc32)cc1` [Example 300, (4Z)-6-(4-Isopropoxyphenyl)-4-{[(4-{[(2R)-2-(methoxymethyl)pyrrolidin-1-yl]methyl}phenyl)amino]methylene}isoquinoline-1,3(2H,4H)-dione] came in with a melting point of 200 to 201 °C. In addition, the IC50 in series [1] (setting [5]) was 17 µM. The 50% inhibitory concentration (IC50) in series [2] (three days) is 3.1 µM. The IC50 in series [3] (three days) worked out at 8.7 µM. The IC50 in series [4] (three days) worked out at 26 µM.
As to `O=C1NC(=O)c2ccc(Br)cc2C1=CNCc1cc(=O)c(O)co1` [Example 313, 6-Bromo-4-{[(5-hydroxy-4-oxo-4H-pyran-2-ylmethyl)-amino]-methylene}-4H-isoquinoline-1,3-dione], the melting point was 293 to 297 °C (dec.). Further, the IC50 in series [1] (setting [5]) came out at 43 µM. In series [2] (three days), the IC50 amounted to 27 µM. Also, the IC50 in series [3] (three days) was found to be 22 µM. In series [4] (three days), the IC50 turned out to be 41 µM.
In the case of `C[C@@H]1CN(c2ccc(N/C=C3\C(=O)NC(=O)c4ccc(Br)cc43)cc2F)C[C@H](C)N1` [Example 318, (4Z)-6-Bromo-4-[({4-[(3R,5S)-3,5-dimethylpiperazin-1-yl]-3-fluorophenyl}amino)methylene]isoquinoline-1,3(2H,4H)-dione], the melting point is 168 to 169 °C. For the same compound, the IC50 in series [1] (setting [5]) was 1.9 µM. In addition, the IC50 in series [2] (three days) amounted to 1.3 µM. For the same compound, the IC50 in series [3] (three days) came out at 2.5 µM. Further, in series [4] (three days), the concentration for half-maximal inhibition (IC50) came out at 1.5 µM.
As for `Cc1nn(-c2ccc(NC=C3C(=O)NC(=O)c4ccc(Br)cc43)cc2)c(C)c1Cl` [Example 348, 6-Bromo-4-{[4-(4-chloro-3,5-dimethyl-pyrazol-1-yl)-phenylamino]-methylene}-4H-isoquinoline-1,3-dione], the melting point lay in the range of 290 to 291 °C. Besides, in series [1] (setting [5]), the half-maximal inhibitory concentration (IC50) was determined as 6.1 µM. Also, the 50% inhibitory concentration (IC50) in series [2] (three days) was 2.6 µM. Besides, in series [3] (three days), the IC50 worked out at 5.1 µM. For the same compound, the IC50 in series [4] (three days) worked out at 1.8 µM.
In the case of `O=C1NC(=O)c2ccc(-n3cccc3)cc2/C1=C/Nc1ccc(Br)cn1` [Example 444, (Z)-4-((5-Bromopyridin-2-ylamino)methylene)-6-(1H-pyrrol-1-yl)isoquinoline-1,3(2H,4H)-dione], the melting point is 317 to 318 °C (dec.). Also, the IC50 in series [1] (setting [6]) amounted to 5.2 µM. In series [2] (3 days), the IC50 is 3.2 µM. Further, the IC50 in series [3] (3 days) turned out to be 8.9 µM. Further, the concentration for half-maximal inhibition (IC50) in series [4] (3 days) worked out at 5 µM.
For `CC(C)N1CCN(c2ccc(N/C=C3\C(=O)NC(=O)c4ccc(Br)cc43)nc2)CC1` [Example 486, (4Z)-6-Bromo-4-({[5-(4-isopropylpiperazin-1-yl)pyridin-2-yl]amino}methylene)isoquinoline-1,3(2H,4H)-dione], the melting point fell in the range of 223 to 224 °C. The half-maximal inhibitory concentration (IC50) in series [1] (setting [6]) was 3.61 µM. In addition, in series [2] (3 days), the IC50 is 7.49 µM. Further, the IC50 in series [3] (3 days) came to 10 µM. For the same compound, in series [4] (3 days), the IC50 stood at 7.56 µM.
For `CCCOc1ccc(CN/C=C2\C(=O)NC(=O)c3ccc(I)cc32)nc1Br` [Example 493, (Z)-4-(((6-Bromo-5-propoxypyridin-2-yl)methylamino)methylene)-6-iodoisoquinoline-1,3(2H,4H)-dione], in that order: 251 to 253 °C (dec.), 10.9 µM, 4.7 µM, 10.2 µM and 9.4 µM.
